Source: ChEMBL document CHEMBL1201862, “PubChem BioAssay data set” (2004)
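Cultured in 96-well plates, cells were exposed to test compound for 48 hours across five concentrations. GI50 = concentration required for 50% inhibition of growth.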 The source made the active and inactive calls. No stated cut-off is given here; in the data, active = GI50 up to about 1.1 µM and inactive = higher.

Experiments:
Assay in all cases: NCI-60 cell line screen, 48 h
A498 = system: A498
CAKI-1 = system: CAKI-1
DLD-1 = system: DLD-1
HL-60 = system: HL-60
HOP-62 = system: HOP-62
M14 = system: M14
NCI-H23 = system: NCI-H23
OVCAR-4 = system: OVCAR-4
RXF 393 = system: RXF 393
SF-268 = system: SF-268
SF-295 = system: SF-295
SK-MEL-28 = system: SK-MEL-28
SK-MEL-2 = system: SK-MEL-2
UACC-62 = system: UACC-62
UO-31 = system: UO-31
SNB-19 = system: SNB-19
SR = system: SR
MCF7 = system: MCF7
MDA-MB-435 = system: MDA-MB-435
MDA-N = system: MDA-N

Row | Compound | GI50 (A498) | GI50 (CAKI-1) | GI50 (DLD-1) | GI50 (HL-60) | GI50 (HOP-62) | GI50 (M14) | GI50 (NCI-H23) | GI50 (OVCAR-4) | GI50 (RXF 393) | GI50 (SF-268) | GI50 (SF-295) | GI50 (SK-MEL-28) | GI50 (SK-MEL-2) | GI50 (UACC-62) | GI50 (UO-31) | GI50 (SNB-19) | GI50 (SR) | GI50 (MCF7) | GI50 (MDA-MB-435) | GI50 (MDA-N)
1 | O=C(OCc1nc2ccc(Br)cc2c(=O)n1-c1ccccc1)c1ccccc1O | 58.3 µM (inactive) | 39.8 µM (inactive) | 67.1 µM (inactive) | 36.7 µM (inactive) | > 100 µM (inactive) | > 100 µM (inactive) | 37.3 µM (inactive) | 34.1 µM (inactive) | > 100 µM (inactive) | 78.9 µM (inactive) | > 100 µM (inactive) | > 100 µM (inactive) | 90.4 µM (inactive) | > 100 µM (inactive) | 29.8 µM (inactive) |  |  |  |  | 
2 | N#Cc1c(-c2ccco2)cc(-c2ccc(NCc3nc4ccccc4[nH]3)cc2)nc1N | 25 µM (inactive) | 33.8 µM (inactive) | 28.8 µM (inactive) | 20 µM (inactive) | 26.7 µM (inactive) | 19.5 µM (inactive) | 20.2 µM (inactive) | 22.8 µM (inactive) | 16 µM (inactive) | 30.1 µM (inactive) | 19.5 µM (inactive) | 27.5 µM (inactive) | 20.3 µM (inactive) | 16.6 µM (inactive) | 16.6 µM (inactive) | 20.5 µM (inactive) |  |  |  | 
3 | [O-][S+]1Cc2ccccc2CS1 (stereo unspecified) | 76.6 µM (inactive) | 13.9 µM (inactive) | 16.7 µM (inactive) | 15.1 µM (inactive) |  | 15 µM (inactive) | 14.1 µM (inactive) | 16 µM (inactive) | 15.9 µM (inactive) | 22.9 µM (inactive) | 31.6 µM (inactive) | 14.9 µM (inactive) |  | 13.2 µM (inactive) | 21.4 µM (inactive) | > 100 µM (inactive) | 20 µM (inactive) |  |  | 
4 | COC(=O)c1nc(C(=O)OC)c2c([nH]c3ccccc32)c1C(=O)OC | > 100 µM (inactive) | > 10 µM (inactive) | 65.6 µM (inactive) |  | > 100 µM (inactive) | > 100 µM (inactive) | > 100 µM (inactive) | > 10 µM (inactive) | 31.8 µM (inactive) |  | 91.4 µM (inactive) | 88.9 µM (inactive) | > 100 µM (inactive) | 85.1 µM (inactive) | 21.3 µM (inactive) |  | 70.3 µM (inactive) |  |  | 
5 | O=C(C#Cc1cnc(O)nc1O)c1ccccc1 | 15.5 µM (inactive) | 18.2 µM (inactive) | 11.3 µM (inactive) | 3.3 µM (inactive) | 18.5 µM (inactive) | 5.2 µM (inactive) | 13.7 µM (inactive) | 14.1 µM (inactive) | 1.7 µM (inactive) | 13.6 µM (inactive) | 35.9 µM (inactive) | 10.9 µM (inactive) | 12.1 µM (inactive) | 7.28 µM (inactive) | 17.4 µM (inactive) | 17.3 µM (inactive) |  |  |  | 
6 | O=c1[nH]c(=O)n(C2CC(O)C(CO)O2)cc1C#Cc1cc(F)cc(F)c1 (stereo unspecified) |  | > 100 µM (inactive) | > 100 µM (inactive) |  | > 100 µM (inactive) | > 100 µM (inactive) | > 100 µM (inactive) | > 100 µM (inactive) |  | > 100 µM (inactive) | > 100 µM (inactive) | > 100 µM (inactive) | > 100 µM (inactive) | > 100 µM (inactive) | > 100 µM (inactive) | > 100 µM (inactive) |  |  |  | 
7 | O=C1c2ccccc2C(=O)c2c(NCCNCCO)ccc(O)c21 | 5.53 µM (inactive) | 2.64 µM (inactive) | 3.33 µM (inactive) | 2.61 µM (inactive) | 3.21 µM (inactive) | 3.23 µM (inactive) | 2.59 µM (inactive) | 2.85 µM (inactive) | 2.15 µM (inactive) | 2.14 µM (inactive) | 4.35 µM (inactive) | 2.88 µM (inactive) | 3.54 µM (inactive) | 3.35 µM (inactive) | 1.49 µM (inactive) | 2.89 µM (inactive) |  |  |  | 
8 | COc1ccc2cc1Oc1ccc(cc1)CC1c3cc4c(cc3CCN1C)Oc1c(OC)cc3c(c1O4)C(C2)N(C)CC3 (stereo unspecified) |  |  | 2.96 µM (inactive) | 1.96 µM (inactive) | 12.6 µM (inactive) | 1.64 µM (inactive) | 4.26 µM (inactive) | 1.47 µM (inactive) | 1.64 µM (inactive) | 2.77 µM (inactive) | 1.98 µM (inactive) | 1.49 µM (inactive) | 2.8 µM (inactive) | 3.21 µM (inactive) |  | 3.86 µM (inactive) | 1.53 µM (inactive) |  |  | 
9 | CCCCCC(/C=C/[C@@H]1[C@H]2CC(=O)O[C@H]2C[C@H]1N1CCOCC1)OC1CCCO1 (stereo partly specified) | > 100 µM (inactive) | > 100 µM (inactive) | > 100 µM (inactive) | > 100 µM (inactive) | > 100 µM (inactive) | > 100 µM (inactive) | > 100 µM (inactive) | > 100 µM (inactive) | > 100 µM (inactive) | > 100 µM (inactive) | > 100 µM (inactive) | > 100 µM (inactive) | > 100 µM (inactive) | > 100 µM (inactive) | > 100 µM (inactive) | > 100 µM (inactive) |  |  |  | 
10 | CCOc1ccc(NCC2CC/C(=C\c3ccccc3OC)C2=O)cc1 (stereo unspecified) | 19.6 µM (inactive) | 12.5 µM (inactive) | 3.09 µM (inactive) | 4.3 µM (inactive) | 27.4 µM (inactive) | 3.64 µM (inactive) | 19.2 µM (inactive) | 6.38 µM (inactive) | 8.91 µM (inactive) | 7.29 µM (inactive) | 18 µM (inactive) | 11 µM (inactive) | 20.3 µM (inactive) | 11.8 µM (inactive) | 13.4 µM (inactive) | 15.9 µM (inactive) |  |  |  | 
11 | Cc1ccc(C)c(NC(=O)CC/C(=N\NC(=O)C(=O)NN)C(C)C(=O)c2ccc(O)cc2)c1 (stereo unspecified) | > 100 µM (inactive) | > 100 µM (inactive) | > 100 µM (inactive) |  | > 100 µM (inactive) | > 100 µM (inactive) | > 100 µM (inactive) | > 100 µM (inactive) | > 100 µM (inactive) | > 100 µM (inactive) | > 100 µM (inactive) | > 100 µM (inactive) | > 100 µM (inactive) | > 100 µM (inactive) | > 100 µM (inactive) | > 100 µM (inactive) | > 100 µM (inactive) |  |  | 
12 | O=C(O)c1ccccc1[Se][Se]c1ccccc1C(=O)O | 95.7 µM (inactive) | 61.8 µM (inactive) | > 100 µM (inactive) | 35.9 µM (inactive) | 29.7 µM (inactive) | 72.9 µM (inactive) | 47.5 µM (inactive) |  | 38.3 µM (inactive) | 40.2 µM (inactive) | 28.4 µM (inactive) | 38.1 µM (inactive) | 44.4 µM (inactive) | 27.5 µM (inactive) | 2.73 µM (inactive) | 11.2 µM (inactive) |  |  |  | 
13 | COC(=O)/C(=N\Nc1nc(S)nn1N)C(C#N)c1ccccc1 (stereo unspecified) | > 100 µM (inactive) |  | > 100 µM (inactive) | > 100 µM (inactive) | > 100 µM (inactive) | > 100 µM (inactive) | > 100 µM (inactive) | > 100 µM (inactive) | > 100 µM (inactive) | > 100 µM (inactive) |  | > 100 µM (inactive) | > 100 µM (inactive) | > 100 µM (inactive) | > 100 µM (inactive) | > 100 µM (inactive) |  |  |  | 
14 | CCOC(=O)/C(I)=C/c1cc(OC)c(OC)c(OC)c1 | 25.6 µM (inactive) | 4.27 µM (inactive) | 6.03 µM (inactive) | 3.67 µM (inactive) | 26.9 µM (inactive) | 3.87 µM (inactive) | 3.08 µM (inactive) | 14.7 µM (inactive) |  | 1.36 µM (inactive) | 9.91 µM (inactive) | 1.41 µM (inactive) | 49 µM (inactive) | 4.5 µM (inactive) | 5.79 µM (inactive) | 7.64 µM (inactive) | 2.98 µM (inactive) |  |  | 
15 | CC(C)CS(=O)(=O)/C(=C(\c1ccc(Br)cc1)S(=O)(=O)CC(C)C)c1ccc(Br)cc1 | 16.3 µM (inactive) | > 100 µM (inactive) | > 100 µM (inactive) |  | > 100 µM (inactive) | > 100 µM (inactive) | > 100 µM (inactive) | > 100 µM (inactive) | 90.2 µM (inactive) | > 100 µM (inactive) | > 100 µM (inactive) | > 100 µM (inactive) | > 100 µM (inactive) | > 100 µM (inactive) | > 100 µM (inactive) | > 100 µM (inactive) | > 100 µM (inactive) |  |  | 
16 | C[N+](C)(C)CC1CCCCCCCCCCC1=O (stereo unspecified) | > 100 µM (inactive) | > 100 µM (inactive) |  | > 100 µM (inactive) | 39.4 µM (inactive) | > 100 µM (inactive) | > 100 µM (inactive) | > 100 µM (inactive) | > 100 µM (inactive) | > 100 µM (inactive) | > 100 µM (inactive) | > 100 µM (inactive) | > 100 µM (inactive) | > 100 µM (inactive) | > 100 µM (inactive) | > 100 µM (inactive) | > 100 µM (inactive) | > 100 µM (inactive) | > 100 µM (inactive) | > 100 µM (inactive)
17 | COc1cc(NCCC2CCCCN2)c2ncccc2c1 (stereo unspecified) | 53.2 µM (inactive) | > 77.1 µM (inactive) |  | 3.56 µM (inactive) | > 96.4 µM (inactive) | 21.5 µM (inactive) | > 100 µM (inactive) | > 70.5 µM (inactive) | 22.2 µM (inactive) | > 92.7 µM (inactive) | 67.1 µM (inactive) | 29.2 µM (inactive) | > 55.7 µM (inactive) | 24.8 µM (inactive) | 57.1 µM (inactive) | > 100 µM (inactive) | 27.3 µM (inactive) | 0.31 µM (active) | 26.4 µM (inactive) | 36.3 µM (inactive)
